Laboratory results: PMC2678990, “Stilbene glycosides are natural product inhibitors of FGF-2-induced angiogenesis” (BMC Cell Biology, 2009)

Columns and labels:
BAEC [1] = assay: Toxicity: MTT and active caspase-3 assays; type: cell-based, bovine; conditions: MTT 72 h and active caspase-3 24 h, staurosporine 1.0-1.4 μM positive control
Procedure: Figure 2 The effect of compounds 1 and 2 on BAEC viability. The cytotoxic effect was determined using (A) The MTT assay; cells (7.5 × 10^3) were incubated with the test compounds or with staurosporine (1.4 μM) an inducer of active caspase-3 and of apoptosis for 72 h and MTT added. The absorbance was read at 570 nm. (B) Active-caspase-3 apoptosis assay: cells (4.0 × 10^4/ml) were incubated with the test compounds or with staurosporine (1.0 μM, 24 h) and stained with anti-active caspase-3 as described below. Experiments were performed in triplicate. Representative immunofluorescence photomicrographs for BAEC were taken as described below. A group of apoptotic cells are highlighted in II.
Stilbene glycoside toxicity was determined using the MTT and active caspase-3 assays. BAECs or HDMECs (7.5 × 10^3) were seeded in a 96 well plate and incubated for 4 h to allow cell adhesion. The test compound or staurosporine (1 μM), an inducer of active caspase-3 and therefore of apoptosis was added to the wells. Control cells were treated with PBS and the plate was incubated at room temperature for 72 hours. MTT reagent (10 μl) was added followed by incubation at room temperature for 2–4 h. When a purple precipitate was visible, detergent reagent (100 μl) was added to the plates and incubated at room temperature for 2 h in the dark. Absorbance was measured at 570 nm using a microplate reader. […]

HDMEC [2] = assay: Toxicity: MTT and active caspase-3 assays; type: cell-based, human; conditions: HDMEC; MTT 72 h and active caspase-3 24 h; staurosporine positive control
Procedure: Stilbene glycoside toxicity was determined using the MTT and active caspase-3 assays. BAECs or HDMECs (7.5 × 10^3) were seeded in a 96 well plate and incubated for 4 h to allow cell adhesion. The test compound or staurosporine (1 μM), an inducer of active caspase-3 and therefore of apoptosis was added to the wells. Control cells were treated with PBS and the plate was incubated at room temperature for 72 hours. MTT reagent (10 μl) was added followed by incubation at room temperature for 2–4 h. When a purple precipitate was visible, detergent reagent (100 μl) was added to the plates and incubated at room temperature for 2 h in the dark. Absorbance was measured at 570 nm using a microplate reader.
In the apoptosis assay, HDMECs or BAEC (4 × 10^4/ml) in complete medium were added to the chambers slide and allowed to adhere for 24 h. The test compound (X μM) or staurosporine (1 μM) were added to all wells except control (PBS) and incubated for 24 hours. Wells treated with staurosporine were immediately washed (PBS) and fixed (4% paraformaldehyde) when cell morphology became round (2–4 h). After washing and fixing, cells were permeablized (0.1% Triton X-100; 10 min), washed (× 5~5 min each), air dried and blocked with 1% BSA in 1:50 TBS-Tween for 1 h at room temperature. Cells were incubated with goat anti-active caspase-3 (R&D system, UK; 1% BSA in TBS-Tween) for 1 h. […]

human umbilical vein ECs = system: human umbilical vein ECs; parameters: method as in PMID 11092574; conditions: cited from earlier work
BAEC [3] = assay: FGF-2-induced tube formation in Matrigel; type: cell-based, bovine; conditions: FGF-2 25 ng/ml
Procedure: (§1) Cells (1.0 × 10^6/ml) were mixed with an equal volume of Matrigel (Becton -Dickinson, Oxford, UK; prepared according to the supplier's instructions) at 4°C. Aliquots (80 μl) were added to the wells of a 48-well plate and allowed to polymerise (1 h) then 500 μl of 15% FCS containing FGF-2 (25 ng/ml; or other growth factors), with or without test compounds was added. The cells were incubated for 24 h at 37°C then fixed in 4% paraformaldehyde (5 min), washed in cold ethanol and the plate air dried. Cells were stained with Geimsa (30 s), air dried and photographed. Ten random fields were selected and the number of closed tubes counted.

HDMEC [4] = assay: FGF-2-induced tube formation in Matrigel; type: cell-based, human; conditions: FGF-2 25 ng/ml
Procedure: as §1

BAEC [5] = assay: FGF-2 invasion in Matrigel; type: cell-based, bovine; conditions: FGF-2 treated
Procedure: The effect of the test compounds on cell invasion was investigated using a Transwell Boyden chamber system coated with reconstituted growth factor-depleted Matrigel. […] Representative photomicrographs for the effect of compound 1 are shown (Figure 7B).
Figure 7 The effect of compounds 1 (AI) and 2 (AII) on BAEC invasion into a Matrigel layer was studied using the chemoinvasion assay described below. Cells (1.7 × 10^4) were added to the Matrigel coated upper Boyden chamber and the compounds with or without FGF-2 added to the lower chamber. Cell invasion was measured after 24 h and assessed as described below. […] Results are the mean of three experiments. (B) Representative photomicrographs are shown for the effect of compound 1 on BAEC (original magnification × 20).
The procedure described above was repeated and wells having a uniform network of tubes were used to assess invasion into a second layer of Matrigel. Matrigel (100 μl), with and without the test compounds was added to the cells and allowed to polymerise (1 h at 37°C). FCS (15%) was added and the cells incubated for 24–72 h when tube growth into the upper layer was measured as described above.

HDMEC [6] = assay: FGF-2 invasion in Matrigel; type: cell-based, human; conditions: FGF-2 treated
[7] = system: chick chorioallantoic membrane; assay: Chick chorioallantoic membrane (CAM) assay; type: in vivo; conditions: FGF-2 (25 ng) alone
Procedure: The angiogenic activity of test compounds was determined using the semi-quantitative chick chorioallantoic assay (CAM) as described previously. To expose the CAM a window was created in the shells of 4 day-old chicken eggs. […] […] This approach enabled calculation of an accumulated response in each group. To photograph the membrane, 2 cm^3 of a 50% emulsion of aqueous paraffin oil containing 2% Tween-80 was injected at the site of application and photographed using a Leitz dissecting microscope. Each experiment was performed five times and statistical significance was determined by the Mann-Whitney U test and the data is expressed as a median value (m).

phospho-ERK1/2 in BAEC = assay: Western blot of ERK1/2 phosphorylation; type: cell-based, bovine; conditions: FGF-2 addition
Procedure: Figure 9 (A) Western blots of p-ERK-1 and -2 were performed on BAEC treated with compound 1 as described below. (B) The bar charts show relative protein expression compared to the control given an arbitrary value of 1.0. All experiments were performed at least twice and a representative example is shown. Lane 1 control, lane 2 FGF-2 (25 ng/ml), lane 3 compound 1 ([…]), lane 4 compound 1 (14.3 μM) + FGF-2, lane 5 compound 1 (28.6 μM), lane 6 compound 1 (28.6 μM) + FGF-2.
The method is described in detail elsewhere. In brief, cells were lysed in RIPA buffer, protein concentration determined using the Biorad assay, and approximately 20 μg aliquots separated by 12% SDS-PAGE, electroblotted onto nitrocellulose filters (Hoefer, San Francisco, Ca, USA), blocked overnight with 1% BSA in TBS-Tween and incubated for 4 h at RT with characterised antibodies to phosphor-ERK1/2 (AutogenBioclear, mouse monoclonal, 1:1000). α-Actin (Sigma, UK; 1:1000) was used as a loading control. Filters were washed in TBS-Tween and stained with antibodies to peroxidase-conjugated secondary antibody. Proteins were detected with the ECL system (Amersham, UK). Protein expression was estimated spectrophotometrically from band intensity. Results are semi-quantitative and given a numerical value compared to the weakest observed band assigned an arbitrary value of 1.0. […]

For `CN[C@@H]1C[C@H]2O[C@@](C)([C@@H]1OC)n1c3ccccc3c3c4c(c5c6ccccc6n2c5c31)C(=O)NC4` [staurosporine, reference compound], the Cytotoxic effect (BAEC [1]) was “significant cytotoxicity” and the Cytotoxic effect (HDMEC [2]) was “significant cytotoxicity”.

In the case of `Oc1ccc(/C=C/c2cc(O)cc(O)c2)cc1` [resveratrol], the “Concentrations inhibiting differentiation into capillary-like structures” value (human umbilical vein ECs) is listed as 0.1 to 1 mM.

For “FGF-2: fibroblast growth factor-2, pro-angiogenic growth factor used as stimulus”, the “Increase in differentiation into capillary-like structures” value (BAEC [3]) was “approximately 4.0 fold”, the “Increase in differentiation into capillary-like structures” value (HDMEC [4]) was “approximately 4.0 fold” and the “Increase in migration into a second layer of Matrigel” value (BAEC [5]) was 3.2 fold. The “Increase in migration into a second layer of Matrigel” value (HDMEC [6]) was 3.0 fold, the “Degree of angiogenesis (m), median score” value [7] was 3 and the “Increase in ERK1/2 phosphorylation compared to the control” value (phospho-ERK1/2 in BAEC) was 50%.
